Earlier results in patent publication US20250108152A1, “DRUG ELUTING POLYMER COMPOSED OF BIODEGRADABLE POLYMERS APPLIED TO SURFACE OF MEDICAL DEVICE” (The General Hospital Corporation, priority 2016, published 2025).

Structure (SMILES) | fraction of intravenous dose that penetrates bone
Cc1nnc(SCC2=C(C(=O)O)N3C(=O)[C@@H](NC(=O)Cn4cnnn4)[C@H]3SC2)s1 [cefazolin] | 7-15%
CO/N=C(\C(=O)N[C@@H]1C(=O)N2C(C(=O)O)=C(CSc3nc(=O)c(=O)[nH]n3C)CS[C@H]12)c1csc(N)n1 [ceftriaxone] | 5-19%
CN[C@H](CC(C)C)C(=O)N[C@H]1C(=O)N[C@@H](CC(N)=O)C(=O)N[C@H]2C(=O)N[C@H]3C(=O)N[C@H](C(=O)N[C@H](C(=O)O)c4cc(O)cc(O)c4-c4cc3ccc4O)[C@H](O)c3ccc(c(Cl)c3)Oc3cc2cc(c3O[C@@H]2O[C@H](CO)[C@@H](O)[C@H](O)[C@H]2O[C@H]2C[C@](C)(N)[C@H](O)[C@H](C)O2)Oc2ccc(cc2Cl)[C@H]1O [vancomycin] | 5-20%
